Values of other authors as cited in patent EP4659596A1 (Nicoventures Trading Limited, priority 2024, dated 2025).

Settings: partition coefficient between octanol and water; organic acids of Table 1

For `CC(C)[C@@H]1CC[C@@H](C)C[C@H]1OC(=O)CCC(=O)O` [monomenthyl succinate], the logP is given as 3.

In the case of ethyl benzoic acid, the logP is given as 2.9.

In the case of isopropyl benzoic acid, the logP is given as 3.5.
